Drawing on patent publication US20240124442A1, “TRICYCLIC-AMIDO-BICYCLIC PRMT5 INHIBITORS” (AMGEN INC., priority 2021, published 2024), this text covers IC50 for 25 compounds.

Experiment [1] deals with HCT116 MTAP null cells. Briefly: HCT116 MTAP null cell line proliferation / cell viability (CellTiter-Glo, 6 days). The class given is cell-based. As to conditions: 144 h; HCT116 MTAP null cells, 6 days treatment, CellTiter-Glo cell viability; read-out: HCT-116 MTAP null IC50. The essentials: (§1)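 Isogenic HCT116 parent and MTAP-knockout cells in RPMI 1640 + 10% FBS, plated overnight, then exposed to compound for 6 days (37 °C, 5% CO2). Viability by CellTiter-Glo luminescence. Dilutions: 8–9 points from 1 or 10 μM (1:3), or 22 points from 10 or 50 μM (1:2); IC50 by 4-parameter or Hill −1 fit.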
A general note: Cellular ATP, detected with luciferase, serves as a proxy for viable cell number.

For experiment [2], the system named is HCT116 WT cells. The experiment can be described thus: HCT116 WT (parent) cell line proliferation / cell viability (CellTiter-Glo, 6 days). The class given is cell-based. Particulars: Homo sapiens, HCT-116, 144 h, 6 days treatment. The essentials: as §1

What is called IC50 is the concentration that gives 50% inhibition. Take `CC(C)CN(C(=O)c1cc2c(cc1F)nc(N)c1c2cnn1C)[C@@H]1COCc2nc(C(F)(F)F)ccc21` [Example 517, 4-amino-7-fluoro-3-methyl-N-(2-methylpropyl)-N-((5S)-2-(trifluoromethyl)-5,8-dihydro-6H-pyrano[3,4-b]pyridin-5-yl)-3H-pyrazolo[3,4-c]quinoline-8-carboxamide]: the values for the IC50 in experiment [1] and in experiment [2] were 18 nM and 342 nM, respectively.
The corresponding values for `CC(C)CN(C(=O)c1cc2c(cc1F)nc(N)c1c2cnn1C)[C@H]1COCc2nc(C(F)(F)F)ccc21` [Example 518, 4-amino-7-fluoro-3-methyl-N-(2-methylpropyl)-N-((5R)-2-(trifluoromethyl)-5,8-dihydro-6H-pyrano[3,4-b]pyridin-5-yl)-3H-pyrazolo[3,4-c]quinoline-8-carboxamide] are 965 nM and 9330 nM.
Turning to `CN(C(=O)c1cc2c(cc1Cl)nc(N)c1c2cnn1C)[C@@H]1COCc2nc(C(F)(F)F)ccc21` [Example 519, 4-amino-7-chloro-N,3-dimethyl-N-((5S)-2-(trifluoromethyl)-5,8-dihydro-6H-pyrano[3,4-b]pyridin-5-yl)-3H-pyrazolo[3,4-c]quinoline-8-carboxamide], the IC50 amounted to 27 nM in experiment [1] and 1390 nM in experiment [2].
The corresponding values for `Cc1cc2nc(N)c3c(cnn3C)c2cc1C(=O)N(C)[C@@H]1COCc2nc(C(F)(F)F)ccc21` [Example 520, 4-amino-N,3,7-trimethyl-N-((5S)-2-(trifluoromethyl)-5,8-dihydro-6H-pyrano[3,4-b]pyridin-5-yl)-3H-pyrazolo[3,4-c]quinoline-8-carboxamide] are 25 nM and 2420 nM.
The like results for `Cc1nn(C)c2c1c(N)nc1cnc(C(=O)N(C)[C@@H]3COCc4cc(C#N)ccc43)cc12` [Example 521, 4-amino-N-((4S)-7-cyano-3,4-dihydro-1H-2-benzopyran-4-yl)-N,1,3-trimethyl-1H-pyrazolo[4,3-c][1,7]naphthyridine-8-carboxamide] were, in that order, 168 nM and 14100 nM.
As for `CN(C(=O)c1ccc2nc(N)c3cnn(C)c3c2c1)[C@@H]1COc2cc(C3CC3)ccc21` [Example 615, 4-amino-N-((3S)-6-cyclopropyl-2,3-dihydro-1-benzofuran-3-yl)-N,1-dimethyl-1H-pyrazolo[4,3-c]quinoline-8-carboxamide], the IC50 is 14 nM in experiment [1] and 1310 nM in experiment [2].
Turning to `CN(C(=O)c1ccc2nc(N)c3cnn(C)c3c2c1)[C@@H]1COc2cc(-c3ccn(C)c3)ccc21` [Example 616, 4-amino-N,1-dimethyl-N-((3S)-6-(1-methyl-1H-pyrrol-3-yl)-2,3-dihydro-1-benzofuran-3-yl)-1H-pyrazolo[4,3-c]quinoline-8-carboxamide], the 50% inhibitory concentration (IC50) in experiment [1] stood at 32 nM; in experiment [2], 3670 nM.
The corresponding values for `CN(C(=O)c1ccc2nc(N)c3cnn(C)c3c2c1)[C@@H]1COc2cc(C3=CCCCC3)ccc21` [Example 617, 4-amino-N-((3S)-6-(1-cyclohexen-1-yl)-2,3-dihydro-1-benzofuran-3-yl)-N,1-dimethyl-1H-pyrazolo[4,3-c]quinoline-8-carboxamide] are 55 nM and 1650 nM.
On to `CN(C(=O)c1ccc2nc(N)c3cnn(C)c3c2c1)[C@@H]1COc2cc(C3=CCOCC3)ccc21` [Example 618, 4-amino-N-((3S)-6-(3,6-dihydro-2H-pyran-4-yl)-2,3-dihydro-1-benzofuran-3-yl)-N,1-dimethyl-1H-pyrazolo[4,3-c]quinoline-8-carboxamide], for which the IC50 in experiment [1] amounted to 10 nM; in experiment [2], 786 nM.
The corresponding values for `CN(C(=O)c1ccc2nc(N)c3cnn(C)c3c2c1)[C@@H]1COc2cc(C3=CCC(F)(F)CC3)ccc21` [Example 619, 4-amino-N-((3S)-6-(4,4-difluoro-1-cyclohexen-1-yl)-2,3-dihydro-1-benzofuran-3-yl)-N,1-dimethyl-1H-pyrazolo[4,3-c]quinoline-8-carboxamide] are 17 nM and 649 nM.
Consider `CN(C(=O)c1ccc2nc(N)c3cnn(C)c3c2c1)[C@@H]1COc2cc(-c3cnn(C(F)(F)F)c3)ccc21` [Example 620, 4-amino-N,1-dimethyl-N-((3S)-6-(1-(trifluoromethyl)-1H-pyrazol-4-yl)-2,3-dihydro-1-benzofuran-3-yl)-1H-pyrazolo[4,3-c]quinoline-8-carboxamide], for which the figures for the IC50 in experiment [1] and in experiment [2] were 6 nM and 634 nM, respectively.
For the compound `CCN(C(=O)c1ccc2nc(N)c3c(c2c1)CO[C@@H]3C)[C@@H]1COCc2cc(C3CC3)ccc21` [Example 621, (3R)-4-amino-N-((4S)-7-cyclopropyl-3,4-dihydro-1H-2-benzopyran-4-yl)-N-ethyl-3-methyl-1,3-dihydrofuro[3,4-c]quinoline-8-carboxamide], the IC50 worked out at 25 nM in experiment [1] and 1040 nM in experiment [2].
Take `CN(C(=O)c1ccc2nc(N)c3cnn(C)c3c2c1)[C@@H]1COc2cc(-c3cn[nH]c3)ccc21` [Example 622, (S)—N-(6-(1H-pyrazol-4-yl)-2,3-dihydrobenzofuran-3-yl)-4-amino-N,1-dimethyl-1H-pyrazolo[4,3-c]quinoline-8-carboxamide]: the figures for the IC50 in experiment [1] and in experiment [2] were 14 nM and 877 nM, respectively.
The corresponding values for `CN(C(=O)c1ccc2nc(N)c3cnn(C)c3c2c1)[C@@H]1COc2cc(C3COC3)ccc21` [Example 625, 4-amino-N,1-dimethyl-N-((3S)-6-(3-oxetanyl)-2,3-dihydro-1-benzofuran-3-yl)-1H-pyrazolo[4,3-c]quinoline-8-carboxamide] are 29 nM and 2320 nM.
For the compound `CN(C(=O)c1ccc2nc(N)c3cnn(C)c3c2c1)[C@@H]1COc2cc(-c3ccoc3)ccc21` [Example 626, 4-amino-N-((3S)-6-(3-furanyl)-2,3-dihydro-1-benzofuran-3-yl)-N,1-dimethyl-1H-pyrazolo[4,3-c]quinoline-8-carboxamide], the values for the IC50 in experiment [1] and in experiment [2] were 6 nM and 384 nM, respectively.
The like results for `CN(C(=O)c1ccc2nc(N)c3cnn(C)c3c2c1)[C@@H]1COc2cc(-c3ccncc3)ccc21` [Example 627, 4-amino-N,1-dimethyl-N-((3S)-6-(4-pyridinyl)-2,3-dihydro-1-benzofuran-3-yl)-1H-pyrazolo[4,3-c]quinoline-8-carboxamide] were, in that order, 4 nM and 136 nM.
With `CN(C(=O)c1ccc2nc(N)c3cnn(C)c3c2c1)[C@@H]1COc2cc(-c3cccnc3)ccc21` [Example 628, 4-amino-N,1-dimethyl-N-((3S)-6-(3-pyridinyl)-2,3-dihydro-1-benzofuran-3-yl)-1H-pyrazolo[4,3-c]quinoline-8-carboxamide], the figures for the IC50 in experiment [1] and in experiment [2] were 5 nM and 511 nM, respectively.
Take `CN(C(=O)c1ccc2nc(N)c3cnn(C)c3c2c1)[C@@H]1COc2cc(-c3cnn(C)c3)ccc21` [Example 629, 4-amino-N,1-dimethyl-N-((3S)-6-(1-methyl-1H-pyrazol-4-yl)-2,3-dihydro-1-benzofuran-3-yl)-1H-pyrazolo[4,3-c]quinoline-8-carboxamide]: the values for the IC50 in experiment [1] and in experiment [2] were 4 nM and 691 nM, respectively.
The like results for `CN(C(=O)c1ccc2nc(N)c3cnn(C)c3c2c1)[C@@H]1COc2cc(-c3ccnn3C)ccc21` [Example 630, 4-amino-N,1-dimethyl-N-((3S)-6-(1-methyl-1H-pyrazol-5-yl)-2,3-dihydro-1-benzofuran-3-yl)-1H-pyrazolo[4,3-c]quinoline-8-carboxamide] were, in that order, 3 nM and 222 nM.
The like results for `CN(C(=O)c1ccc2nc(N)c3cnn(C)c3c2c1)[C@@H]1COc2cc(-c3ccn(C)n3)ccc21` [Example 631, 4-amino-N,1-dimethyl-N-((3S)-6-(1-methyl-1H-pyrazol-3-yl)-2,3-dihydro-1-benzofuran-3-yl)-1H-pyrazolo[4,3-c]quinoline-8-carboxamide] were, in that order, 23 nM and 2530 nM.
The like results for `Cc1cc(-c2ccc3c(c2)OC[C@H]3N(C)C(=O)c2ccc3nc(N)c4cnn(C)c4c3c2)co1` [Example 632, 4-amino-N,1-dimethyl-N-((3S)-6-(5-methyl-3-furanyl)-2,3-dihydro-1-benzofuran-3-yl)-1H-pyrazolo[4,3-c]quinoline-8-carboxamide] were, in that order, 26 nM and 841 nM.
For the compound `Cc1cc(-c2ccc3c(c2)OC[C@H]3N(C)C(=O)c2ccc3nc(N)c4cnn(C)c4c3c2)on1` [Example 633, 4-amino-N,1-dimethyl-N-((3S)-6-(3-methyl-1,2-oxazol-5-yl)-2,3-dihydro-1-benzofuran-3-yl)-1H-pyrazolo[4,3-c]quinoline-8-carboxamide], the values for the IC50 in experiment [1] and in experiment [2] were 8 nM and 672 nM, respectively.
The like results for `CN(C(=O)c1ccc2nc(N)c3cnn(C)c3c2c1)[C@@H]1COc2cc(C3=CCCOC3)ccc21` [Example 634, 4-amino-N-((3S)-6-(5,6-dihydro-2H-pyran-3-yl)-2,3-dihydro-1-benzofuran-3-yl)-N,1-dimethyl-1H-pyrazolo[4,3-c]quinoline-8-carboxamide] were, in that order, 8 nM and 524 nM.
On to `CN(C(=O)c1ccc2nc(N)c3cnn(C)c3c2c1)[C@@H]1COc2cc(-c3cscn3)ccc21` [Example 635, 4-amino-N,1-dimethyl-N-((3S)-6-(1,3-thiazol-4-yl)-2,3-dihydro-1-benzofuran-3-yl)-1H-pyrazolo[4,3-c]quinoline-8-carboxamide], for which the IC50 in experiment [1] was 9 nM; in experiment [2], 613 nM.
The like results for `Cc1ncc(-c2ccc3c(c2)OC[C@H]3N(C)C(=O)c2ccc3nc(N)c4cnn(C)c4c3c2)cn1` [Example 636, 4-amino-N,1-dimethyl-N-((3S)-6-(2-methyl-5-pyrimidinyl)-2,3-dihydro-1-benzofuran-3-yl)-1H-pyrazolo[4,3-c]quinoline-8-carboxamide] were, in that order, 13 nM and 1950 nM.
